Experiments:
[1] = tested on: barley; assay: Herbicidal bioassay, barley (% necrosis); format: in vivo
Procedure, shortened: (§1)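 Scoring of % necrosis followed EPPO guideline PP1/135 at specified growth intervals, five replicates per species and treatment. Plants at the 2-4 true leaf stage received Potter-tower sprays of DMSO-diluted compounds across six levels from 0.0001% to 0.05%, with water and DMSO controls.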

[2] = tested on: peas; assay: Herbicidal bioassay, peas (% necrosis); format: in vivo
Procedure, shortened: as §1

Compound: CC(=O)OCC(C)Oc1ccc(Oc2ccc(C(F)(F)F)cn2)cc1 (stereo not drawn) [Compound 63, 2-[4-[[5-(Trifluoromethyl)-2-pyridyl]oxy]phenoxy]propyl acetate]
- Sum of % necrosis in barley ([1]; Dose 0.000001, Day 0): C (less than 50% necrosis)
- Sum of % necrosis in barley ([1]; Dose 0.000001, Day 1): C (less than 50% necrosis)
- Sum of % necrosis in barley ([1]; Dose 0.000001, Day 3): C (less than 50% necrosis)
- Sum of % necrosis in barley ([1]; Dose 0.000001, Day 7): C (less than 50% necrosis)
- Sum of % necrosis in barley ([1]; Dose 0.000001, Day 10): C (less than 50% necrosis)
- Sum of % necrosis in barley ([1]; Dose 0.000001, Day 14): C (less than 50% necrosis)
- Sum of % necrosis in barley ([1]; Dose 0.000001, Day 21): C (less than 50% necrosis)
- Sum of % necrosis in barley ([1]; Dose 0.000005, Day 0): C (less than 50% necrosis)
- Sum of % necrosis in barley ([1]; Dose 0.000005, Day 1): C (less than 50% necrosis)
- Sum of % necrosis in barley ([1]; Dose 0.000005, Day 3): C (less than 50% necrosis)
- Sum of % necrosis in barley ([1]; Dose 0.000005, Day 7): C (less than 50% necrosis)
- Sum of % necrosis in barley ([1]; Dose 0.000005, Day 10): C (less than 50% necrosis)
- Sum of % necrosis in barley ([1]; Dose 0.000005, Day 14): C (less than 50% necrosis)
- Sum of % necrosis in barley ([1]; Dose 0.000005, Day 21): C (less than 50% necrosis)
- Sum of % necrosis in barley ([1]; Dose 0.00001, Day 0): C (less than 50% necrosis)
- Sum of % necrosis in barley ([1]; Dose 0.00001, Day 1): C (less than 50% necrosis)
- Sum of % necrosis in barley ([1]; Dose 0.00001, Day 3): C (less than 50% necrosis)
- Sum of % necrosis in barley ([1]; Dose 0.00001, Day 7): C (less than 50% necrosis)
- Sum of % necrosis in barley ([1]; Dose 0.00001, Day 10): C (less than 50% necrosis)
- Sum of % necrosis in barley ([1]; Dose 0.00001, Day 14): C (less than 50% necrosis)
- Sum of % necrosis in barley ([1]; Dose 0.00001, Day 21): C (less than 50% necrosis)
- Sum of % necrosis in barley ([1]; Dose 0.00005, Day 0): C (less than 50% necrosis)
- Sum of % necrosis in barley ([1]; Dose 0.00005, Day 1): C (less than 50% necrosis)
- Sum of % necrosis in barley ([1]; Dose 0.00005, Day 3): C (less than 50% necrosis)
- Sum of % necrosis in barley ([1]; Dose 0.00005, Day 7): C (less than 50% necrosis)
- Sum of % necrosis in barley ([1]; Dose 0.00005, Day 10): C (less than 50% necrosis)
- Sum of % necrosis in barley ([1]; Dose 0.00005, Day 14): B (50%-80% necrosis)
- Sum of % necrosis in barley ([1]; Dose 0.00005, Day 21): B (50%-80% necrosis)
- Sum of % necrosis in barley ([1]; Dose 0.0001, Day 0): C (less than 50% necrosis)
- Sum of % necrosis in barley ([1]; Dose 0.0001, Day 1): C (less than 50% necrosis)
- Sum of % necrosis in barley ([1]; Dose 0.0001, Day 3): C (less than 50% necrosis)
- Sum of % necrosis in barley ([1]; Dose 0.0001, Day 7): C (less than 50% necrosis)
- Sum of % necrosis in barley ([1]; Dose 0.0001, Day 10): C (less than 50% necrosis)
- Sum of % necrosis in barley ([1]; Dose 0.0001, Day 14): C (less than 50% necrosis)
- Sum of % necrosis in barley ([1]; Dose 0.0001, Day 21): C (less than 50% necrosis)
- Sum of % necrosis in barley ([1]; Dose 0.0005, Day 0): C (less than 50% necrosis)
- Sum of % necrosis in barley ([1]; Dose 0.0005, Day 1): C (less than 50% necrosis)
- Sum of % necrosis in barley ([1]; Dose 0.0005, Day 3): C (less than 50% necrosis)
- Sum of % necrosis in barley ([1]; Dose 0.0005, Day 7): C (less than 50% necrosis)
- Sum of % necrosis in barley ([1]; Dose 0.0005, Day 10): C (less than 50% necrosis)
- Sum of % necrosis in barley ([1]; Dose 0.0005, Day 14): C (less than 50% necrosis)
- Sum of % necrosis in barley ([1]; Dose 0.0005, Day 21): C (less than 50% necrosis)
- Sum of % necrosis in Peas ([2]; Dose 0.000001, Day 0): C (less than 50% necrosis)
- Sum of % necrosis in Peas ([2]; Dose 0.000001, Day 1): C (less than 50% necrosis)
- Sum of % necrosis in Peas ([2]; Dose 0.000001, Day 3): C (less than 50% necrosis)
- Sum of % necrosis in Peas ([2]; Dose 0.000001, Day 7): C (less than 50% necrosis)
- Sum of % necrosis in Peas ([2]; Dose 0.000001, Day 10): B (50%-80% necrosis)
- Sum of % necrosis in Peas ([2]; Dose 0.000001, Day 14): B (50%-80% necrosis)
- Sum of % necrosis in Peas ([2]; Dose 0.000001, Day 21): A (over 80% necrosis)
- Sum of % necrosis in Peas ([2]; Dose 0.000005, Day 0): C (less than 50% necrosis)
- Sum of % necrosis in Peas ([2]; Dose 0.000005, Day 1): C (less than 50% necrosis)
- Sum of % necrosis in Peas ([2]; Dose 0.000005, Day 3): C (less than 50% necrosis)
- Sum of % necrosis in Peas ([2]; Dose 0.000005, Day 7): C (less than 50% necrosis)
- Sum of % necrosis in Peas ([2]; Dose 0.000005, Day 10): B (50%-80% necrosis)
- Sum of % necrosis in Peas ([2]; Dose 0.000005, Day 14): B (50%-80% necrosis)
- Sum of % necrosis in Peas ([2]; Dose 0.000005, Day 21): A (over 80% necrosis)
- Sum of % necrosis in Peas ([2]; Dose 0.00001, Day 0): C (less than 50% necrosis)
- Sum of % necrosis in Peas ([2]; Dose 0.00001, Day 1): C (less than 50% necrosis)
- Sum of % necrosis in Peas ([2]; Dose 0.00001, Day 3): C (less than 50% necrosis)
- Sum of % necrosis in Peas ([2]; Dose 0.00001, Day 7): C (less than 50% necrosis)
- Sum of % necrosis in Peas ([2]; Dose 0.00001, Day 10): B (50%-80% necrosis)
- Sum of % necrosis in Peas ([2]; Dose 0.00001, Day 14): B (50%-80% necrosis)
- Sum of % necrosis in Peas ([2]; Dose 0.00001, Day 21): A (over 80% necrosis)
- Sum of % necrosis in Peas ([2]; Dose 0.00005, Day 0): C (less than 50% necrosis)
- Sum of % necrosis in Peas ([2]; Dose 0.00005, Day 1): C (less than 50% necrosis)
- Sum of % necrosis in Peas ([2]; Dose 0.00005, Day 3): C (less than 50% necrosis)
- Sum of % necrosis in Peas ([2]; Dose 0.00005, Day 7): B (50%-80% necrosis)
- Sum of % necrosis in Peas ([2]; Dose 0.00005, Day 10): A (over 80% necrosis)
- Sum of % necrosis in Peas ([2]; Dose 0.00005, Day 14): A (over 80% necrosis)
- Sum of % necrosis in Peas ([2]; Dose 0.00005, Day 21): A (over 80% necrosis)
- Sum of % necrosis in Peas ([2]; Dose 0.0001, Day 0): C (less than 50% necrosis)
- Sum of % necrosis in Peas ([2]; Dose 0.0001, Day 1): C (less than 50% necrosis)
- Sum of % necrosis in Peas ([2]; Dose 0.0001, Day 3): C (less than 50% necrosis)
- Sum of % necrosis in Peas ([2]; Dose 0.0001, Day 7): C (less than 50% necrosis)
- Sum of % necrosis in Peas ([2]; Dose 0.0001, Day 10): C (less than 50% necrosis)
- Sum of % necrosis in Peas ([2]; Dose 0.0001, Day 14): B (50%-80% necrosis)
- Sum of % necrosis in Peas ([2]; Dose 0.0001, Day 21): B (50%-80% necrosis)
- Sum of % necrosis in Peas ([2]; Dose 0.0005, Day 0): C (less than 50% necrosis)
- Sum of % necrosis in Peas ([2]; Dose 0.0005, Day 1): C (less than 50% necrosis)
- Sum of % necrosis in Peas ([2]; Dose 0.0005, Day 3): C (less than 50% necrosis)
- Sum of % necrosis in Peas ([2]; Dose 0.0005, Day 7): C (less than 50% necrosis)
- Sum of % necrosis in Peas ([2]; Dose 0.0005, Day 10): B (50%-80% necrosis)
- Sum of % necrosis in Peas ([2]; Dose 0.0005, Day 14): B (50%-80% necrosis)
- Sum of % necrosis in Peas ([2]; Dose 0.0005, Day 21): B (50%-80% necrosis)

— patent US20150094474A1, “AGRICULTURAL CHEMICALS” (Redx Pharma Ltd., priority 2012, published 2015)
